Experimental data as given in article PMC3961306, “Comparison of the Cancer Gene Targeting and Biochemical Selectivities of All Targeted Kinase Inhibitors Approved for Clinical Use” (PLoS ONE, 2014).

Legend:
Experiment in all cases: Kinase profiling in a biochemical assay panel (mobility shift assays and ELISA), %-inhibition at 1 μM; selectivity entropy
[1] = biological target: T1, panel of more than 300 wild-type and mutant kinases (313 kinase panel) (Homo sapiens, UniProt P46734)
T1 sequence (P46734 1-347): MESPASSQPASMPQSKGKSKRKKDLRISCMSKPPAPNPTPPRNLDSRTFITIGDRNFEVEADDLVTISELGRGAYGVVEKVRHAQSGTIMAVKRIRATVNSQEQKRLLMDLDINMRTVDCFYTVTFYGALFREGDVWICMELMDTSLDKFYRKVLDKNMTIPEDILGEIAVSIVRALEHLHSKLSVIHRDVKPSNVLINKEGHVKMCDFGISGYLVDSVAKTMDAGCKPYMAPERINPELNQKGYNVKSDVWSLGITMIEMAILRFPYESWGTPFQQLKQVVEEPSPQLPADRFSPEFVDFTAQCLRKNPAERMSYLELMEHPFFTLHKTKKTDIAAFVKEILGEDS

[2] = biological target: panel of more than 300 wild-type and mutant kinases (313 kinase panel) (Homo sapiens, UniProt P04629)
[3] = biological target: T2, panel of more than 300 wild-type and mutant kinases (313 kinase panel) (Homo sapiens, UniProt O15146)
T2 sequence (O15146 24-869): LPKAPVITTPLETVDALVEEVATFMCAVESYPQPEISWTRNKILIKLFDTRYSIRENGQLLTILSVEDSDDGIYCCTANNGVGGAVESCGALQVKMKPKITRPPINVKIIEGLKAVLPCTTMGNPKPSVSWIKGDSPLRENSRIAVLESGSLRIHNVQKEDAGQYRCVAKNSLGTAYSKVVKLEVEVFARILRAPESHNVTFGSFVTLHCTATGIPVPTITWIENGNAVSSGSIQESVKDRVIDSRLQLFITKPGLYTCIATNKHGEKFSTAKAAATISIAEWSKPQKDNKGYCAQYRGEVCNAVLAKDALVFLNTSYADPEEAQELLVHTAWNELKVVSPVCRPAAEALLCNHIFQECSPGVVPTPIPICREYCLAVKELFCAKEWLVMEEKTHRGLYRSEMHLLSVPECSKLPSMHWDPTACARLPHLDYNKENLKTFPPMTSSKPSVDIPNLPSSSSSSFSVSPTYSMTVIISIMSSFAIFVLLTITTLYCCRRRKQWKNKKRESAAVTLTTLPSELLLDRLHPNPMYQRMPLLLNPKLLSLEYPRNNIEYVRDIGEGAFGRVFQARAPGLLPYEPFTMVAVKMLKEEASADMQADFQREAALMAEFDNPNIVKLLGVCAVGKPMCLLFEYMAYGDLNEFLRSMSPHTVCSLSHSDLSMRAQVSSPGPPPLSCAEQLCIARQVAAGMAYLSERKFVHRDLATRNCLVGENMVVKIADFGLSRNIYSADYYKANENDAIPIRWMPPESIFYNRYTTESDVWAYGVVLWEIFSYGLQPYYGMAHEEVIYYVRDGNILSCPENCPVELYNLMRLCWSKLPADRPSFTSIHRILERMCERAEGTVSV

[4] = biological target: T3, panel of more than 300 wild-type and mutant kinases (313 kinase panel) (Homo sapiens, UniProt Q12851)
T3 sequence (Q12851 1-820): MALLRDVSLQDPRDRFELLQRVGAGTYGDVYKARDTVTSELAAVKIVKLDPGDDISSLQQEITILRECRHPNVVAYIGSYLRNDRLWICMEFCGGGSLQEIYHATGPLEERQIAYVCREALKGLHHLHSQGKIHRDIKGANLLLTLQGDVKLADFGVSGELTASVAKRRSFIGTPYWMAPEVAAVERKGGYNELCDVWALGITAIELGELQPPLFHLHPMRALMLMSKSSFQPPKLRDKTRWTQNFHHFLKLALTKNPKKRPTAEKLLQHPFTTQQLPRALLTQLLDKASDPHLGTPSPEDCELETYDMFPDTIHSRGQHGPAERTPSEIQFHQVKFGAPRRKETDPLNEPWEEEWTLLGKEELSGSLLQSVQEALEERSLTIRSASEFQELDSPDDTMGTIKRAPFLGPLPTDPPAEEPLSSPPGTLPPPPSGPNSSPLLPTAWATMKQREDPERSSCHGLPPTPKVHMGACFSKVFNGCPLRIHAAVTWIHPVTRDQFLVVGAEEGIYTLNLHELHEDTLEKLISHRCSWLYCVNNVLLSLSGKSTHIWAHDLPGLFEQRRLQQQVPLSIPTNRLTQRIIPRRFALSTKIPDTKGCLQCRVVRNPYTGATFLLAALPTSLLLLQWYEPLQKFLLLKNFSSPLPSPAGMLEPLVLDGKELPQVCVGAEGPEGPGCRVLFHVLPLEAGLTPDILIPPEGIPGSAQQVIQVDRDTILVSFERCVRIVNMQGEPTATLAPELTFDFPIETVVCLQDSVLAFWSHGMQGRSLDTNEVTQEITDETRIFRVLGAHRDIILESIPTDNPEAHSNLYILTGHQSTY

[5] = biological target: panel of more than 300 wild-type and mutant kinases (313 kinase panel) (Homo sapiens, UniProt P06239)
Chain of panel of more than 300 wild-type and mutant kinases (313 kinase panel) (Homo sapiens, UniProt P06239) (P06239 whole entry, change not shown): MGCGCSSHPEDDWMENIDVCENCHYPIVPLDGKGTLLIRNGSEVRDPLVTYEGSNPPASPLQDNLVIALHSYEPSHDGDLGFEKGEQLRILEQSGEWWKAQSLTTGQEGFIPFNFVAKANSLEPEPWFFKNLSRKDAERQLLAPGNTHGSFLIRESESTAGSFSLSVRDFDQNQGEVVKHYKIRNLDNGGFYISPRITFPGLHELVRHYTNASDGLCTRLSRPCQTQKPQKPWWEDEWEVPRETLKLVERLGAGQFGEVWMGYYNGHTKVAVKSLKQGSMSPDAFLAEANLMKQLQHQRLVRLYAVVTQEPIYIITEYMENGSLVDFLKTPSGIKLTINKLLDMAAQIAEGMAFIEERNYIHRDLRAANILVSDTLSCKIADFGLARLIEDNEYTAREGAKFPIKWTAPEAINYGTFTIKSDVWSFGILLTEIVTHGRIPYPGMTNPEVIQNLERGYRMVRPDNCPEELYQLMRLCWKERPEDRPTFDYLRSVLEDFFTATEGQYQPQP

[6] = biological target: panel of more than 300 wild-type and mutant kinases (313 kinase panel) (Homo sapiens, UniProt Q9H2X6)
[7] = kinase MAP4K2, compound at 1 μM
[8] = kinase MAP2K3, compound at 1 μM

COc1cc(Nc2c(C#N)cnc3cc(OCCCN4CCN(C)CC4)c(OC)cc23)c(Cl)cc1Cl [bosutinib]
%-inhibition of MAP2K3 ([1]; 1 µM): 34% | %-inhibition of TRKA ([2]; kinase TRKA, 1 μM): 88% | %-inhibition of MUSK ([3]; kinase MUSK, 1 μM): 58% | %-inhibition of MAP4K2 [4, 7]: 98%

COc1cc2nccc(Oc3ccc(NC(=O)C4(C(=O)Nc5ccc(F)cc5)CC4)cc3)c2cc1OC [cabozantinib]
%-inhibition of LCK ([5]; kinase LCK, compound at 1 μM): 98% | %-inhibition of MAP2K3 [1, 8]: 72% | %-inhibition of HIPK2 ([6]; kinase HIPK2, compound at 1 μM): 60% | %-inhibition of TRKA ([2]; kinase TRKA, 1 μM): 100% | %-inhibition of MUSK ([3]; kinase MUSK, 1 μM): 95% | %-inhibition of MAP4K2 [4, 7]: 35%

C[C@@H](Oc1cc(-c2cnn(C3CCNCC3)c2)cnc1N)c1c(Cl)ccc(F)c1Cl [crizotinib]
%-inhibition of MAP2K3 [1, 8]: 12% | %-inhibition of HIPK2 ([6]; kinase HIPK2, compound at 1 μM): -6.53% | %-inhibition of TRKA ([2]; kinase TRKA, 1 μM): 103% | %-inhibition of MUSK ([3]; kinase MUSK, 1 μM): 99%

CC(C)(C)c1nc(-c2cccc(NS(=O)(=O)c3c(F)cccc3F)c2F)c(-c2ccnc(N)n2)s1 [dabrafenib]
%-inhibition of LCK ([5]; kinase LCK, compound at 1 μM): 83% | %-inhibition of MAP2K3 [1, 8]: 11% | %-inhibition of HIPK2 ([6]; kinase HIPK2, compound at 1 μM): 42% | %-inhibition of MUSK ([3]; kinase MUSK, 1 μM): 16% | %-inhibition of MAP4K2 [4, 7]: 8%

Cc1nc(Nc2ncc(C(=O)Nc3c(C)cccc3Cl)s2)cc(N2CCN(CCO)CC2)n1 [dasatinib]
%-inhibition of MAP2K3 [1, 8]: 35% | %-inhibition of HIPK2 ([6]; kinase HIPK2, compound at 1 μM): 6%

C#Cc1cccc(Nc2ncnc3cc(OCCOC)c(OCCOC)cc23)c1 [erlotinib]
%-inhibition of MAP2K3 ([1]; 1 µM): 10% | %-inhibition of HIPK2 ([6]; 1 µM): 10% | %-inhibition of TRKA ([2]; 1 µM): 14% | %-inhibition of MUSK ([3]; 1 µM): 12% | %-inhibition of MAP4K2 ([4]; 1 µM): 9%

CO[C@H]1C[C@@H]2CC[C@@H](C)[C@@](O)(O2)C(=O)C(=O)N2CCCC[C@H]2C(=O)O[C@H]([C@H](C)C[C@@H]2CC[C@@H](OCCO)[C@H](OC)C2)CC(=O)[C@H](C)/C=C(\C)[C@@H](O)[C@@H](OC)C(=O)[C@H](C)C[C@H](C)/C=C/C=C/C=C/1C [everolimus]
%-inhibition of LCK ([5]; kinase LCK, compound at 1 μM): -2.67% | %-inhibition of MAP2K3 [1, 8]: 10% | %-inhibition of HIPK2 ([6]; kinase HIPK2, compound at 1 μM): -6% | %-inhibition of TRKA ([2]; kinase TRKA, 1 μM): -3.53% | %-inhibition of MUSK ([3]; kinase MUSK, 1 μM): -7% | %-inhibition of MAP4K2 [4, 7]: -7%

O=S(=O)(c1cccc2cnccc12)N1CCCNCC1 [fasudil]
%-inhibition of LCK ([5]; kinase LCK, compound at 1 μM): -7.52% | %-inhibition of MAP2K3 [1, 8]: -4% | %-inhibition of HIPK2 ([6]; kinase HIPK2, compound at 1 μM): -1.86% | %-inhibition of TRKA ([2]; kinase TRKA, 1 μM): -2.44% | %-inhibition of MUSK ([3]; kinase MUSK, 1 μM): 2% | %-inhibition of MAP4K2 [4, 7]: 4%

CS(=O)(=O)CCNCc1ccc(-c2ccc3ncnc(Nc4ccc(OCc5cccc(F)c5)c(Cl)c4)c3c2)o1 [lapatinib]
%-inhibition of LCK ([5]; kinase LCK, compound at 1 μM): 12% | %-inhibition of MAP2K3 [1, 8]: 13% | %-inhibition of HIPK2 ([6]; kinase HIPK2, compound at 1 μM): 1.46% | %-inhibition of TRKA ([2]; kinase TRKA, 1 μM): 5.64% | %-inhibition of MUSK ([3]; kinase MUSK, 1 μM): 4.38% | %-inhibition of MAP4K2 [4, 7]: 11%

Cc1cn(-c2cc(NC(=O)c3ccc(C)c(Nc4nccc(-c5cccnc5)n4)c3)cc(C(F)(F)F)c2)cn1 [nilotinib]
%-inhibition of LCK ([5]; 1 µM): 90% | %-inhibition of MAP2K3 [1, 8]: 94% | %-inhibition of HIPK2 ([6]; kinase HIPK2, compound at 1 μM): 16% | %-inhibition of TRKA ([2]; 1 µM): 41% | %-inhibition of MUSK ([3]; 1 µM): 42% | %-inhibition of MAP4K2 [4, 7]: 3.24%

Cc1ccc(Nc2nccc(N(C)c3ccc4c(C)n(C)nc4c3)n2)cc1S(N)(=O)=O [pazopanib]
%-inhibition of LCK ([5]; kinase LCK, compound at 1 μM): 73% | %-inhibition of MAP2K3 [1, 8]: 47% | %-inhibition of HIPK2 ([6]; kinase HIPK2, compound at 1 μM): 5.51% | %-inhibition of MUSK ([3]; kinase MUSK, 1 μM): 9% | %-inhibition of MAP4K2 [4, 7]: 71%

Cc1ccc(C(=O)Nc2ccc(CN3CCN(C)CC3)c(C(F)(F)F)c2)cc1C#Cc1cnc2cccnn12 [ponatinib]
%-inhibition of LCK ([5]; kinase LCK, compound at 1 μM): 103% | %-inhibition of TRKA ([2]; kinase TRKA, 1 μM): 101% | %-inhibition of MUSK ([3]; kinase MUSK, 1 μM): 100% | %-inhibition of MAP4K2 [4, 7]: 99%

CNC(=O)c1cc(Oc2ccc(NC(=O)Nc3ccc(Cl)c(C(F)(F)F)c3)c(F)c2)ccn1 [regorafenib]
%-inhibition of LCK ([5]; kinase LCK, compound at 1 μM): 85% | %-inhibition of MAP2K3 [1, 8]: 90% | %-inhibition of HIPK2 ([6]; kinase HIPK2, compound at 1 μM): 78% | %-inhibition of TRKA ([2]; kinase TRKA, 1 μM): 90% | %-inhibition of MUSK ([3]; kinase MUSK, 1 μM): 80% | %-inhibition of MAP4K2 [4, 7]: 46%

N#CC[C@H](C1CCCC1)n1cc(-c2ncnc3[nH]ccc23)cn1 [ruxolitinib]
%-inhibition of LCK ([5]; kinase LCK, compound at 1 μM): 21% | %-inhibition of MAP2K3 [1, 8]: 27% | %-inhibition of HIPK2 ([6]; 1 µM): 9% | %-inhibition of TRKA ([2]; kinase TRKA, 1 μM): 92% | %-inhibition of MUSK ([3]; kinase MUSK, 1 μM): 56% | %-inhibition of MAP4K2 [4, 7]: 7%

CCN(CC)CCNC(=O)c1c(C)[nH]c(/C=C2\C(=O)Nc3ccc(F)cc32)c1C [sunitinib]
%-inhibition of TRKA ([2]; kinase TRKA, 1 μM): 98% | %-inhibition of MUSK ([3]; kinase MUSK, 1 μM): 99% | %-inhibition of MAP4K2 [4, 7]: 85%

COc1cc2c(Nc3ccc(Br)cc3F)ncnc2cc1OCC1CCN(C)CC1 [vandetanib]
%-inhibition of MAP2K3 [1, 8]: 16% | %-inhibition of HIPK2 ([6]; kinase HIPK2, compound at 1 μM): -11% | %-inhibition of TRKA ([2]; kinase TRKA, 1 μM): 46% | %-inhibition of MUSK ([3]; kinase MUSK, 1 μM): 42%
